Source: patent US20250073209A1, “COVALENT TARGETING OF RhoA FOR CANCER THERAPY” (The University of Hong Kong, priority 2023, published 2025)

Experiments:
HCT116 cells = assay: Apoptosis assay with Caspase-3/7 Green Detection Reagent; type: cell-based, human; conditions: HCT116, 24 h
Procedure: HCT116 cells were seeded onto a poly-D-lysine coated Ibidi 8-well chamber slide (20,000 cells) and cultured overnight in complete medium at 37° C. with 5% CO2. The cells were treated with DMSO control, Rhosin or CL16 at the indicated concentration along with 5 μM of CellEvent™ Caspase- 3/7 green in serum-free medium for 24 h. Prior to imaging, the medium was exchanged for Hanks' Balanced Salt Solution (HBSS). Confocal fluorescence microscopy was performed using a Zeiss laser scanning microscope 880 with a 20× water-immersion objective lens and ZEN 2.3 (Black Version) software (Carl Zeiss). CellEvent™ Caspase- 3/7 green was excited by a 488 nm diode laser and emission was collected on a META detector between 490 and 525 nm. Image analysis was performed on ImageJ where the number of cells expressing fluorescence within the field was counted against the total number of cells to report the percentage of apoptotic cells. The average percentage was calculated from 3 separate images from the same well.
The effects of CL16 treatment on cell cycle checkpoint proteins were investigated with immunoblotting of the cell cycle checkpoint proteins in SW620 and HT29 cells after CL16 treatment for 24 h. […] Caspase- 3/7 Green Detection Reagent was used to study apoptosis in HCT116 cells treated with Rhosin by confocal fluorescence imaging. […]

Rac1 = Rac1 (Homo sapiens, UniProt P63000); assay: Gel-based competitive ABPP, second screening on Rac1; type: binding
Procedure: Recombinant human RhoA (0.1 μg; ab101594) was pretreated with cysteine-reactive compounds or DMSO for 1 hour at room temperature, followed by incubation with iodoacetamide-rhodamine (IA-Rh; 1 μM) for 1 hour at room temperature. The reaction was then quenched by boiling in sampling buffer. Samples were subjected to SDS-PAGE to separate proteins bands. In-gel fluorescence intensity was measured with a Chemidoc using setting for Rhodamine. Gel was subsequently stained with silver stain (Pierce) for visualization of protein content and covalent modification. Band intensity was quantified using ImageJ.
CL16 was identified for its strong and specific binding with RhoA in covalent ligand screening experiment by ABPP. ABPP is known as a powerful platform for covalent ligand screening, particularly for the identification of lead compounds targeting new hotspots for therapy. Competitive gel-based activity-based protein profiling (ABPP) experiment was performed on purified RhoA protein for screening its interactions with a library of cysteine-reactive covalent ligands with acrylamide or chloroacetamide warheads. RhoA protein for the first screening and on Rac1 and Cdc42 for the second screening to identify lead compounds with specific binding onto RhoA Cys16. […] The reaction mixture was then resolved by SDS-PAGE and in-gel fluorescence was imaged (FIG. 1A). […]

RhoA = RhoA (Homo sapiens, UniProt P61586); assay: LC-MS/MS on HCT116 cells treated with CL16; type: cell-based; design: endogenous in cells; host or cells: HCT116; conditions: CL16 25 or 50 μM, 4 hours
Procedure: HCT116 cells were treated with DMSO or CL16 (25 or 50 μM) in complete medium for 4 hours, washed with PBS, harvested, and lysed in PBS by sonication. The protein amount of the samples was determined by BCA assay and normalized. The cell lysates in PBS were reduced by TCEP (1 mM) at 65° C. for 30 min, followed by alkylation with iodoacetamide (18 mM) at 37° C. for 30 min in the dark. The mixtures were added with prechilled acetone (600 μL) for protein precipitation at −20° C. overnight. The samples were centrifuged at 8000g for 10 min at 4° C. The supernatant was discarded and the dried pellet was resuspended in […] in PBS (100 μL). Sequencing grade trypsin (Promega #V5111) were added to the samples for overnight digestion at 37° C. with constant shaking. The solutions were then acidified with formic acid (FA; final concentration 5%), centrifuged at 13,200 rpm for 30 min at 4° C. The supernatant was collected and stored at −80° C. before MS analysis.
The peptide solutions were dried and desalted by C18 Stage tips, and the peptides were loaded onto an Aurora C18 UHPLC column (75 μm i.d.×25 cm length×1.6 μm particle size (IonOpticks Australia) coupled to timsTOF Pro mass spectrometer (Bruker). […]

RhoA, sequence (P61586 whole entry): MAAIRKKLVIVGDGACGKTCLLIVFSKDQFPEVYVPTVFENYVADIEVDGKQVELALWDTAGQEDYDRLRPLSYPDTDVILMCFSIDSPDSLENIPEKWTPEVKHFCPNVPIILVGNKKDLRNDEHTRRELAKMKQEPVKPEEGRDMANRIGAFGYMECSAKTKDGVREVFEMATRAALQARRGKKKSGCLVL

## O=C(CCl)N1N=C(c2cc3ccccc3o2)CC1c1ccco1 (stereo not drawn) [CL16]
HCT116 cells
  cell apoptosis: mediated cell apoptosis
Rac1
  binding with Rac1: no observable binding
RhoA
  covalent modification site on RhoA: Cys16
